From patent publication US20080132577A1, “Use of agomelatine in obtaining medicaments intended for the treatment of smith-magenis syndrome” (LES LABORATOIRES SERVIER, priority 2006, published 2008)

Columns and labels:
[1] = system: children with Smith-Magenis syndrome; assay: Exploratory phase II clinical study in children with Smith-Magenis syndrome (actigraphy, Achenbach questionnaire); assay type: in vivo, human; settings: agomelatine 1-5 mg/kg co-administered with acebutolol 10 mg/kg
Protocol: An exploratory phase II study was carried out in children with Smith-Magenis syndrome. Agomelatine 1-5 mg/kg was co-administered with acebutolol 10 mg/kg, a […]. The main analysis criteria were actigraphy parameters recorded over five periods of 30 consecutive days, after 30 days of treatment, and 3, 5 and 15 months of treatment, and also the Achenbach questionnaire, allowing the behaviour disorders to be assessed.
These major effects were carried over to the families, who, following the highly positive consequences of the treatment on family life, requested continuation of the treatment on a compassionate basis.

patients = assay: Clinical trials of agomelatine: acceptability, tolerability and drug interactions; assay type: in vivo, human
Text: In fact, agomelatine makes it possible to act simultaneously on the behaviour disorders and on the resynchronisation of disturbed circadian rhythms.

[2] = system: Smith-Magenis syndrome patients; settings: evening exogenous melatonin with morning beta-adrenergic antagonists; cited from earlier work
[3] = actigraphy, up to 15 months of treatment

Row | Compound | behaviour (behaviour disorders, Achenbach questionnaire) [1] | clinical improvement found by a specialist [1] | sleep quality recorded [1] | duration of daytime naps [1, 3] | duration of night waking [1, 3] | frequency of night waking [1, 3] | drug interactions (patients; human, in vivo) | clinical and biological tolerability (patients; more than 4000 patients exposed in clinical trials) | activity in respect of the behaviour disorders [2]
1 | COc1ccc2cccc(CCNC(C)=O)c2c1 [agomelatine, N-[2-(7-methoxy-1-naphthyl)ethyl]acetamide] | Real progress in relation to behaviour | Major clinical improvement | a calm, deep sleep, less-broken nights and less-early waking in the morning | reduction in the duration of daytime naps | reduction | reduction | no drug interactions | excellent clinical and biological tolerability | 
2 | COc1ccc2[nH]cc(CCNC(C)=O)c2c1 [melatonin] |  |  |  |  |  |  |  |  | no activity
